Test results from ChEMBL document CHEMBL1127263, “Synthesis of B-NOR-4-AZA-5-androstane compound as 5-reductase inhibitor” (Bioorg Med Chem Lett, 1994).

Target: Steroid 5-alpha-reductase (Rattus norvegicus) (UniProt P24008+P31214)
Assay: Inhibition of rat Steroid 5-alpha-reductase was determined at 10e-8 M concentration
Format: protein assay

Chain of Steroid 5-alpha-reductase (Rattus norvegicus) (P24008 whole entry, looked up): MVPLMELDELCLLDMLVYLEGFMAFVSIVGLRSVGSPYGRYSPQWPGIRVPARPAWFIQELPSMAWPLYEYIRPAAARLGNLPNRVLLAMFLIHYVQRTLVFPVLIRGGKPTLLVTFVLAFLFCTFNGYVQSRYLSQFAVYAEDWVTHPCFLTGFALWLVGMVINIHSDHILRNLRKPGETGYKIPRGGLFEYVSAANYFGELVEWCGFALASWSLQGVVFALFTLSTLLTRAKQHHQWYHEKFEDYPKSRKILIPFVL
Chain of Steroid 5-alpha-reductase (Rattus norvegicus) (P31214 whole entry, looked up): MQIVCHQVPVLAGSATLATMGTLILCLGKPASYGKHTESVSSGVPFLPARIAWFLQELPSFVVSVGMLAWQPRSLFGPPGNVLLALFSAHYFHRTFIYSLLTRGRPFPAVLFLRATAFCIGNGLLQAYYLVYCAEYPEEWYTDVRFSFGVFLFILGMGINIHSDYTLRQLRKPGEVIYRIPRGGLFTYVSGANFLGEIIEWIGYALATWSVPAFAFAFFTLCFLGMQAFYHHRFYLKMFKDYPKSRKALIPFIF

inhibition: 63%
Compound: CC12CCC3C(C[C@H]4NC(=O)CCC34C)C1CCC2C(=O)NC(c1ccccc1)c1ccccc1 (stereo partly specified)
